Target: human TrkA (Homo sapiens (Human), UniProt P04629)
Assay: Human TrkA inhibition assay (Test Example 2)
Format: biochemical
Settings: Table 152, human TrkA inhibition; read-out: IC50_nM
Procedure: Seven point five μL per well of human TrkA (PV3144, Lifetechnologies, final concentration: 1 nmol/L) suspended in the assay buffer (100 mmol/L 4-(2-hydroxyethyl)-1-piperazineethanesulfonic acid (HEPES), 10 mmol/L magnecium chloride, 0.003 vol % Brij-35, 0.004 vol % Tween20 and 1 mmol/L dithiothreitol (DTT)) was applied in a 384 well plate and the plate was pre-incubated for 15 min at room temperature with 0.4 μL of each compound (final concentration: 200 μmol/L-1 pmol/L) dissolved in DMSO. Then, fluorescent substrate (FL-peptide 27, 760424, PerkinElmer, final concentration: 1.5 μmol/L) and ATP (final concentration 500 μmol/L) dissolved in the assay buffer was added in each well. After the incubation of 120 min at 37° C., fifteen μL of termination buffer (100 mmol/L HEPES, 40 mmol/L ethylenediaminetetraacetic acid (EDTA), 10 mmol/L magnecium chloride, 0.003 vol % Brij-35, 0.004 vol % Tween20, 1 mmol/L DTT and 0.16 vol % Coating Reagent 3) was added in each well to stop the enzyme reaction. Fluorescent intensities (FI) of phosphorylated and non-phosphorylated fluorescent substrates were measured by LabChip EZReader II (Caliper LifeSciences, Inc.), and conversion ratio (CR) was calculated by the following formula-1. The CR in the well applied with DMSO alone was used as a negative control and the CR in the well without applying TrkA was used as a positive control. The inhibitory effect of each compound on TrkA phosphorylation was calculated by the following formula-2. CR (%)=(FI of phosphorylated substrate/(FI of phosphorylated substrate+FI of non-phosphorylated substrate))×100 (Formula-1) Phosphorylation inhibition (%)=(1−(CR with compound treatment−CR of positive control)/(CR of negative control−CR of positive control))×100 (Formula-2)
IC50 values (nmol/L) were determined by the logistic regression using the inhibition data in 10 points of 3-fold dilution series at a compound concentration range of 20 nmol/L to 1 pmol/L, or 10 points of 3-fold dilution series at the range of 2 μmol/L to 0.1 nmol/L, or 10 points of 3-fold dilution series at the range of 200 μmol/L to 10 nmol/L, or 15 points of 3-fold dilution series at the range of 200 μmol/L to 0.04 nmol/L.
The evaluation results of the compounds in the present invention are indicated as follows. IC50 values of 0 to 100 nM, 100 to 1000 nM and over 1000 nM were shown as “A”, “B” and “C”, respectively.

Sequence of human TrkA (P04629 440-796): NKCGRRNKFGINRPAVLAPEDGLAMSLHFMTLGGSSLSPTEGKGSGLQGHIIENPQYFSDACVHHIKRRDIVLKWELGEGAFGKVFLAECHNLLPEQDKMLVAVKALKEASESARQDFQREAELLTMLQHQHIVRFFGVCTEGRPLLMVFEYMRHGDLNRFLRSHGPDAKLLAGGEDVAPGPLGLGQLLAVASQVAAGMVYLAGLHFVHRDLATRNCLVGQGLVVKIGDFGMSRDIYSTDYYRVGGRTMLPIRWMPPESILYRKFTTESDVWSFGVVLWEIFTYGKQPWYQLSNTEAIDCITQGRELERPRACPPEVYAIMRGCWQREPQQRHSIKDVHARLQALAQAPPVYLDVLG

Row | SMILES | IC50 [nM]
1 | Cc1c(-c2cnn(C)c2)nn(-c2ccccc2)c1NC(=O)N[C@@H]1CN(Cc2csnn2)O[C@H]1c1ccccc1 (racemic) [Compound I-2] | 100 to 1000
2 | COCC[C@@H]1O[C@@H](NC(=O)Nc2c(C)c(-c3cnn(C)c3)nn2-c2ccccc2)[C@H](c2ccccc2)O1 (racemic) [Compound I-5] | < 100
3 | COCCN1C[C@@H](NC(=O)Nc2c(C)c(-c3cnn(C)c3)nn2-c2ccccc2)[C@H](c2ccnc(Cl)c2)O1 (racemic) [Compound I-9] | < 100
4 | COCC[C@@H]1C[C@@H](NC(=O)Nc2c(C)c(-c3cnn(C)c3)nn2-c2ccccc2)[C@H](c2ccc(F)c(F)c2)O1 (racemic) [Compound I-23] | < 100
5 | COCCN1C[C@@H](NC(=O)Nc2c(C)c(-c3ccc(OCc4ccccc4)nc3)nn2-c2ccccc2)[C@H](c2ccc(F)c(F)c2)O1 (racemic) [Compound I-27] | < 100
6 | COCCN1C[C@@H](NC(=O)Nc2c(C)c(-c3ccc(=O)[nH]c3)nn2-c2ccccc2)[C@H](c2ccc(F)c(F)c2)O1 (racemic) [Compound I-32] | < 100
7 | COCCN1C[C@@H](NC(=O)Nc2c(C)c(-c3ccc(C(=O)OC(C)(C)C)cc3)nn2-c2ccccc2)[C@H](c2ccc(F)c(F)c2)O1 (racemic) [Compound I-33] | < 100
8 | COCCN1C[C@@H](NC(=O)Nc2c(C)c(-c3ccc(C(=O)O)cc3)nn2-c2ccccc2)[C@H](c2ccc(F)c(F)c2)O1 (racemic) [Compound I-35] | < 100
9 | COCCN1C[C@@H](NC(=O)Nc2c(C)c(-c3cnc4nc(C)nn4c3)nn2-c2ccccc2)[C@H](c2ccc(F)c(F)c2)O1 (racemic) [Compound I-43] | < 100
10 | COCCN1C[C@@H](NC(=O)Nc2c(C)c(-c3cnc4ncnn4c3)nn2-c2ccccc2)[C@H](c2ccc(F)c(F)c2)O1 (racemic) [Compound I-44] | < 100

Now from value to compound:

Row | IC50 [nM] | SMILES
11 | < 100 | COCCN1C[C@@H](NC(=O)Nc2c(C)c(-c3cnn(C)c3)nn2-c2ccccc2)[C@H](c2ccc(F)c(F)c2)O1 (racemic) [Compound I-8]
12 | < 100 | COCCN1C[C@@H](NC(=O)Nc2c(C)c(-c3cnc(C)nc3)nn2-c2ccccc2)[C@H](c2ccc(F)c(F)c2)O1 (racemic) [Compound I-26]
13 | < 100 | COCCN1C[C@@H](NC(=O)Nc2c(C)c(C3=CCN(C(=O)OC(C)(C)C)CC3)nn2-c2ccccc2)[C@H](c2ccc(F)c(F)c2)O1 (racemic) [Compound I-29]
14 | < 100 | COCCN1C[C@@H](NC(=O)Nc2c(C)c(C3=CCNCC3)nn2-c2ccccc2)[C@H](c2ccc(F)c(F)c2)O1 (racemic) [Compound I-30]
15 | < 100 | COCCN1C[C@@H](NC(=O)Nc2c(C)c(-c3cnc(CO)nc3)nn2-c2ccccc2)[C@H](c2ccc(F)c(F)c2)O1 (racemic) [Compound I-34]
16 | < 100 | COCCN1C[C@@H](NC(=O)Nc2c(C)c(C3=CCN(C(=O)OC(C)(C)C)CC3)nn2-c2ccccc2)[C@H](c2ccnc(F)c2)O1 (racemic) [Compound I-41]
17 | < 100 | COCCN1C[C@@H](NC(=O)Nc2c(C)c(C3=CCN(C(C)=O)CC3)nn2-c2ccccc2)[C@H](c2ccnc(F)c2)O1 (racemic) [Compound I-42]

Same assay, conditions: Table 153, human TrkA inhibition; read-out: IC50

Row | SMILES | IC50 [nM]
18 | COCCN1C[C@@H](NC(=O)Nc2c(C)c(-c3cccc(C(=O)OC(C)(C)C)c3)nn2-c2ccccc2)[C@H](c2ccc(F)c(F)c2)O1 (racemic) [Compound I-50] | < 100
19 | COCC[C@@H]1C[C@@H](NC(=O)Nc2c(C)c(C3=CCNCC3)nn2-c2ccccc2)[C@H](c2ccc(F)c(F)c2)O1 (racemic) [Compound I-55] | < 100
20 | COCCN1C[C@@H](NC(=O)Nc2c(C)c(OCC(C)(C)O)nn2-c2ccccc2)[C@H](c2ccc(F)c(F)c2)O1 (racemic) [Compound I-61] | < 100
21 | CCN1CCC(NC(=O)c2cc(-c3nn(-c4ccccc4)c(NC(=O)N[C@@H]4CN(CCOC)O[C@H]4c4ccc(F)c(F)c4)c3C)ccn2)CC1 (racemic) [Compound I-62] | < 100
22 | COCCN1C[C@@H](NC(=O)Nc2c(C)c(-c3cnc4cnn(C)c4c3)nn2-c2ccccc2)[C@H](c2ccnc(F)c2)O1 (racemic) [Compound I-63] | < 100
23 | CCN1CCC(NC(=O)c2cc(-c3nn(-c4ccccc4)c(NC(=O)N[C@@H]4C[C@@H](CCOC)O[C@H]4c4ccc(F)c(F)c4)c3C)ccn2)CC1 (racemic) [Compound I-64] | < 100

The next lines start with the values.

Row | IC50 [nM] | SMILES
24 | < 100 | COCCN1C[C@@H](NC(=O)Nc2c(C)c(-c3cnc(C)nc3)nn2-c2ccccc2)[C@H](c2cnc(F)c(F)c2)O1 (racemic) [Compound I-45]
25 | < 100 | COCCN1C[C@@H](NC(=O)Nc2c(C)c(C3=CCN(C(=O)OC(C)(C)C)CC3)nn2-c2ccccc2)[C@H](c2cnc(F)c(F)c2)O1 (racemic) [Compound I-46]
26 | < 100 | COCCN1C[C@@H](NC(=O)Nc2c(C)c(C3=CCNCC3)nn2-c2ccccc2)[C@H](c2cnc(F)c(F)c2)O1 (racemic) [Compound I-48]
27 | < 100 | COCCN1C[C@@H](NC(=O)Nc2c(C)c(C3=CCN(C(C)=O)CC3)nn2-c2ccccc2)[C@H](c2cnc(F)c(F)c2)O1 (racemic) [Compound I-49]
28 | < 100 | COCCN1C[C@@H](NC(=O)Nc2c(C)c(-c3cccc(C(=O)O)c3)nn2-c2ccccc2)[C@H](c2ccc(F)c(F)c2)O1 (racemic) [Compound I-51]
29 | < 100 | COCCN1C[C@@H](NC(=O)Nc2c(C)c(-c3cnn(C)c3)nn2-c2ccccc2)[C@H](c2cnc(F)c(F)c2)O1 (racemic) [Compound I-52]
30 | < 100 | COCCN1C[C@@H](NC(=O)Nc2c(C)c(C3=CCN(C(=O)CO)CC3)nn2-c2ccccc2)[C@H](c2ccc(F)c(F)c2)O1 (racemic) [Compound I-53]
31 | < 100 | COCC[C@@H]1C[C@@H](NC(=O)Nc2c(C)c(C3=CCN(C(=O)OC(C)(C)C)CC3)nn2-c2ccccc2)[C@H](c2ccc(F)c(F)c2)O1 (racemic) [Compound I-54]
32 | < 100 | COCC[C@@H]1C[C@@H](NC(=O)Nc2c(C)c(C3=CCN(C(=O)CO)CC3)nn2-c2ccccc2)[C@H](c2ccc(F)c(F)c2)O1 (racemic) [Compound I-56]
33 | < 100 | COCCN1C[C@@H](NC(=O)Nc2c(C)c(-c3ccc(C#N)cc3)nn2-c2ccccc2)[C@H](c2cnc(F)c(F)c2)O1 (racemic) [Compound I-60]
34 | < 100 | COCCN1C[C@@H](NC(=O)Nc2c(C)c(-c3cnc4c(cnn4C)c3)nn2-c2ccccc2)[C@H](c2cnc(F)c(F)c2)O1 (racemic) [Compound I-67]
35 | < 100 | CCOc1ncc(-c2nn(-c3ccccc3)c(NC(=O)N[C@@H]3CN(CCOC)O[C@H]3c3cnc(F)c(F)c3)c2C)cn1 (racemic) [Compound I-68]

Same assay, conditions: human TrkA 1 nmol/L, ATP 500 μmol/L, 120 min at 37° C.; read-out: IC50 values (TrkA phosphorylation inhibition)

Row | IC50 [nM] | SMILES
36 | 5200 | Cc1c(-c2cnn(C)c2)nn(-c2ccccc2)c1NC(=O)N[C@@H]1OC(C)(C)O[C@H]1c1ccccc1 (racemic) [Compound I-1]
37 | 120 | CCN1C[C@@H](NC(=O)Nc2c(C)c(-c3cnn(C)c3)nn2-c2ccccc2)[C@H](c2ccccc2)O1 (racemic) [Compound I-3]
38 | 170 | COCCN1C[C@@H](NC(=O)Nc2c(C)c(-c3cnn(C)c3)nn2-c2ccccc2)[C@H](c2ccc(F)c(F)c2)N1 (racemic) [Compound I-10]
39 | 0.81 | COCCN1C[C@@H](NC(=O)Nc2c(C)c(-c3ccc4c(cnn4C)c3)nn2-c2ccccc2)[C@H](c2ccc(F)c(F)c2)O1 (racemic) [Compound I-22]
40 | 2.5 | COCC[C@@H]1C[C@@H](NC(=O)Nc2c(C)c(-c3cnc(C)nc3)nn2-c2ccccc2)[C@H](c2ccc(F)c(F)c2)O1 (racemic) [Compound I-28]
41 | 0.78 | COCCN1C[C@@H](NC(=O)Nc2c(C)c(C3=CCN(C(C)=O)CC3)nn2-c2ccccc2)[C@H](c2ccc(F)c(F)c2)O1 (racemic) [Compound I-31]
42 | 1.4 | CCN1CCC(NC(=O)c2ccc(-c3nn(-c4ccccc4)c(NC(=O)N[C@@H]4CN(CCOC)O[C@H]4c4ccc(F)c(F)c4)c3C)cc2)CC1 (racemic) [Compound I-36]
43 | 4 | COCCN1C[C@@H](NC(=O)Nc2c(C)c(-c3cnc(C)nc3)nn2-c2ccccc2)[C@H](c2ccnc(F)c2)O1 (racemic) [Compound I-47]
44 | 1.6 | COCCN1C[C@@H](NC(=O)Nc2c(C)c(-c3ccc(N=S(C)(C)=O)nc3)nn2-c2ccccc2)[C@H](c2ccc(F)c(F)c2)O1 (racemic) [Compound I-66]
